In patent US12448388B2, “PRMT5 inhibitors and uses thereof” (Gilead Sciences, Inc., priority 2023, dated 2025):
In brackets after ≈: the same amount, converted by molar mass. Read-outs that look alike come from different tables or passages of the source.

Assays:
[1] = MDR1/BCRP assay: permeability in cPgp-KO-MDCK-WT cells; format: in vitro ADME; conditions: dog, pH 7.4
Protocol: The cells were maintained in an incubator at 37° C., 90% humidity, and 5% CO2 until reaching confluence over 5 days in 96-well transwell plates. Experiments were conducted using an HBSS donor buffer (Invitrogen) containing 10 mM HEPES and 15 mM glucose, adjusted to pH 7.4. The receiver well contained HBSS buffer supplemented with 1% BSA, 10 mM HEPES, and 15 mM glucose, and the pH was adjusted to 7.4. TEER values were measured to assess membrane integrity after an initial equilibration with BSA-free transport buffer for 15 minutes. The experiment was started by adding dosing solutions containing test compounds at 1 μM. Cells were dosed on the apical (A) side or basolateral (B) side at 100 μl and 200 μl, respectively, to determine forward (A to B) and reverse (B to A) permeability. At the 2-hour time point, 50 μl samples were collected from the receiver compartment. Each compound was tested in 2 separate replicate wells for each condition. All samples were immediately collected into plates, and 50 μL of acetonitrile was added. Subsequently, 350 μl of 30:70 methanol: acetonitrile containing internal standard was added to precipitate proteins and stabilize the test compounds. To test for non-specific binding and compound instability, the total amount of the drug was quantified at the end of the experiment and compared to the material present in the original dosing solution as a percentage of the recovery. All samples were analyzed by LC-MS/MS using electrospray ionization.
The apparent permeability, Papp, and % recovery were calculated as follows: […]

[2] = PBS solubility (kinetic solubility from DMSO stocks); format: physicochemical; conditions: 22 °C, aqueous buffer, kinetic from dmso stock; 1x PBS pH 7.4, 1.0% DMSO, 24-hour incubation at ambient temperature
Protocol: Buffer Preparation: 1×PBS, 7.4: Phosphate Buffered Saline solution 10×, PBS (Fisher Bioreagent, part number BP399-500) 50 mL was added to approximately 450 mL HPLC grade H2O. The volume of the solution was then adjusted to 500 mL for a total dilution factor of 1:10 and a final PBS concentration of 1×. The pH of the final solution was measured and found to be 7.4.
The final DMSO Concentration is 1.0% and maximum theoretical compound concentration is 100 μM (assuming stock concentration of 10 mM). The filter plate was sealed. Following 24-hour incubation at ambient temperature (20.8-24.0° C.), the samples were vacuum filtered, and the filtrates were collected in a 96 well polypropylene plate for analysis. The collection plate was sealed for analysis. Filtrates were injected into the nitrogen detector for quantification on Analiza's Automated Discovery Workstation. The results are reported here in both μM and μg/mL.
Calculation of Results: The equimolar nitrogen response of the detector is calibrated using standards which span the dynamic range of the instrument from 0.08 to 4500 μg/ml nitrogen. The filtrates were quantified with respect to this calibration curve. The calculated solubility values are corrected for background nitrogen present in the DMSO, and the media used to prepare the samples. All reported values for compounds containing adjacent nitrogen atoms in a ring structure should be increased by ˜25%. […] The solubility results presented assume that the samples were free of nitrogen containing impurities and are stable under the assay conditions.

[3] = tested on: HCT116 MTAP-deleted cell lines; assay: Cell viability assay (CellTiter-Glo, 7 days), HCT116 MTAP-deleted; format: cell-based; conditions: for Selectivity: HCT116 WT CC50 versus HCT116 MTAP^del CC50; for plasma-adjusted CC50 (paCC50): paCC50 = CC50-HCT116-MTAP^del * (% free CCM/% free human plasma); for CC50: Homo sapiens, HCT116 MTAP-deleted
Method in brief: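 Read-out was CellTiter-Glo luminescence after a 7-day incubation (37 °C, 5% CO2) of HCT116 cells, MTAP-deleted or WT, on dose-response compound plates. CC50 values come from each line; where marked *, selectivity is overstated because poor solubility impaired the WT CC50 measurement.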

[4] = Cell viability assay (CellTiter-Glo, 7 days), HCT116 WT; format: cell-based; conditions: human, HCT116 WT cells, 7 days of treatment, CTG
Protocol: Control compounds were analyzed in parallel each time for quality control. In Brief, on Day -1, a serial dilution of stock compounds in DMSO was performed using BioMek liquid handlers and dispensed using Echo acoustic dispenser into 384 well plates. Both tool compounds and sample compounds were spotted in the same plate for a dose response of PRMT5 inhibitors. Compound plates were stored as frozen until the cells were ready for seeding. […] After equilibrating the plate in room temperature, the cells were incubated for 7 days inside the sealed incubator set at 37° C. with 90% humidity and 5% CO2. On Day 7, the viability of cells was measured using a CTG assay kit (CellTitre-Glo;Promega cat no. G7573). Shortly, 40 μl per well of luminescent cell viability assay reagent were dispensed using EL460 liquid dispenser 5 μl cassette. CTG luminescence signal was measured using an EnVision plate reader (PerkinElmer) in accordance with manufacturer's instruction. […] Selectivity with * is artificially high due to limited solubility of the compound hampering accurate measurement of WT CC50.

[5] = tested on: Symmetric Di-methyl Arginine (SDMA) signal (PRMT5 inhibition) in HCT116 MTAP-deleted cells; assay: Symmetric di-methyl arginine image-based high content screen assay (SDMA assay), HCT116 MTAP-deleted; format: cell-based
Method in brief: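 Read-out is imaging of per-cell mean SDMA immunofluorescence (Alexa 488), with cells segmented by DAPI. Cells, MTAP-deleted or wild-type HCT116, were exposed to compound for 3 days at 37 °C before fixation. EC50 derived by 4-parameter non-linear logistic regression.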

[6] = HCT-116, 168 h, 7 days of treatment, CTG, read-out: CC50-HCT116-MTAP^del
[7] = HCT-116, cell viability, class symbols, read-out: CC50
[8] = HCT-116, cell viability assay, class symbols, read-out: CC50

| Papp A→B at 2 h, 1 µM [1] [×10⁻⁶ cm/s] | solubility at 24 h [2] [µM] | EC50 selectivity ([5]; HCT116 WT vs HCT116 MTAP-deleted) | EC50 ([5]; Homo sapiens, HCT-116, HCT116 MTAP-deleted, class symbols) [nM] | Structure (SMILES) | Selectivity [3] | plasma-adjusted CC50 (paCC50) ([3]; HCT-116) [nM] | CC50 [3, 6] [nM] | CC50 [3, 7] [nM] | CC50 at 7 days [4] [nM] | CC50 [3, 8] [nM] |
| --- | --- | --- | --- | --- | --- | --- | --- | --- | --- | --- |
| 10.8 | 4.2 (≈ 2.01 µg/mL) | – | – | N#Cc1cc2nc(N)c3cncn3c2cc1C(=O)N1CCC[C@@H]2Oc3cc(C(F)(F)F)ccc3[C@@H]21 [Ff-346, 4-amino-8-((4aS,9bS)-7-(trifluoromethyl)-1,2,3,4,4a,9b-hexahydrobenzofuro[3,2-b]pyridine-1-carbonyl)imidazo[1,5-a]quinoxaline-7-carbonitrile] | 51 | 155 | 6 | < 100 | 305 | – |
| 12.3 | 1.1 (≈ 0.52 µg/mL) | – | – | Nc1nc2cnc(C(=O)N3C[C@H](F)CC4Oc5cc(C(F)(F)F)ccc5[C@@H]43)cc2n2cncc12 (mixture of isomers) [Ff-113, Rac-(4-aminoimidazo[1,5-a]pyrido[3,4-e]pyrazin-8-yl)((3R,4aS,9bS)-3-fluoro-7-(trifluoromethyl)-3,4,4a,9b-tetrahydrobenzofuro[3,2-b]pyridin-1(2H)-yl)methanone] | 86 | – | 30 | < 100 | 2570 | – |
| 17.8 | < 1 | – | – | Nc1nc2cc(F)c(C(=O)N3CCO[C@@H]4Cc5cc(OC(F)F)c(F)cc5[C@@H]43)cc2n2cncc12 [Ff-174, (4-amino-7-fluoroimidazo[1,5-a]quinoxalin-8-yl)((4aS,9aR)-7-(difluoromethoxy)-6-fluoro-2,3,9,9a-tetrahydroindeno[2,1-b][1,4]oxazin-4(4aH)-yl)methanone] | 63 | – | 36 | < 100 | 2280 | – |
| 13.4 | 21.8 (≈ 10.6 µg/mL) | – | – | Cc1ncc2c(N)nc3cc(F)c(C(=O)N4CCC[C@@H]5Oc6nc(C(F)(F)F)ccc6[C@@H]54)cc3n12 [Ff-363, (4-amino-7-fluoro-1-methylimidazo[1,5-a]quinoxalin-8-yl)((4aS,9bS)-7-(trifluoromethyl)-3,4,4a,9b-tetrahydrofuro[2,3-b:4,5-b′]dipyridin-1(2H)-yl)methanone] | 127 | 196 | 16 | < 100 | 2040 | – |
| – | < 1 | – | – | Nc1nc2cc(F)c(C(=O)N3CCC[C@@H]4Oc5cc(OC(F)(F)F)cc(F)c5[C@@H]43)cc2n2cncc12 [Fg-68, (4-amino-7-fluoroimidazo[1,5-a]quinoxalin-8-yl)((4aS,9bS)-9-fluoro-7-(trifluoromethoxy)-3,4,4a,9b-tetrahydrobenzofuro[3,2-b]pyridin-1(2H)-yl)methanone] | 89 | 130 | 8 | – | 708 | – |
| 10.9 | 2.6 (≈ 1.26 µg/mL) | – | – | Cc1ncc2c(N)nc3cnc(C(=O)N4CC[C@H]5C[C@@H]4c4ccc(C(F)(F)F)c(F)c4O5)cc3n12 [Ff-699, (4-amino-1-methylimidazo[1,5-a]pyrido[3,4-e]pyrazin-8-yl)((2S,6R)-10-fluoro-9-(trifluoromethyl)-3,4-dihydro-2H-2,6-methanobenzo[b][1,5]oxazocin-5(6H)-yl)methanone] | 74 | 237 | 15 | – | 1110 | – |
| – | 18.6 (≈ 9.08 µg/mL) | – | – | Nc1nc2cnc(C(=O)N3CC[C@H]4C[C@@H]3c3c(F)cc(OC(F)(F)F)cc3O4)cc2n2cncc12 (single isomer, unassigned) [Ff-692] | 69 | 139 | 14 | – | 969 | – |
| 11.4 | < 1 | – | – | Cc1ncc2c(N)nc3cnc(C(=O)N4CC[C@H]5C[C@@H]4c4ccc(OC(F)(F)F)cc4O5)cc3n12 [Ff-698, (4-amino-1-methylimidazo[1,5-a]pyrido[3,4-e]pyrazin-8-yl)((2S,6R)-9-(trifluoromethoxy)-3,4-dihydro-2H-2,6-methanobenzo[b][1,5]oxazocin-5(6H)-yl)methanone] | 96 | 295 | 15 | – | 1440 | – |
| 10 | < 1 | – | – | Cc1ncn2c1c(N)nc1cc(F)c(C(=O)N3CCC[C@@H]4Oc5cc(C(F)(F)F)ccc5[C@@H]43)cc12 [Ff-379, (4-amino-7-fluoro-3-methylimidazo[1,5-a]quinoxalin-8-yl)((4aS,9bS)-7-(trifluoromethyl)-3,4,4a,9b-tetrahydrobenzofuro[3,2-b]pyridin-1(2H)-yl)methanone] | 56 | – | 13 | – | 730 | < 100 |
| – | 1.2 (≈ 0.566 µg/mL) | – | – | Nc1nc2cc(F)c(C(=O)N3CCC[C@@H]4Oc5ccc(C(F)(F)F)cc5[C@@H]43)cc2n2cncc12 [Ff-620, (4-amino-7-fluoroimidazo[1,5-a]quinoxalin-8-yl)((4aS,9bS)-8-(trifluoromethyl)-3,4,4a,9b-tetrahydrobenzofuro[3,2-b]pyridin-1(2H)-yl)methanone] | 50 | – | 31 | – | 1550 | < 100 |
| – | 18.3 (≈ 9.69 µg/mL) | – | – | Cc1ncn2c1c(N)nc1cc(F)c(C(=O)N3CCCC[C@@H]3c3ccc(S(F)(F)(F)(F)F)cc3)cc12 [Ff-402, (R)-(4-amino-7-fluoro-3-methylimidazo[1,5-a]quinoxalin-8-yl)(2-(4-(pentafluoro-16-sulfaneyl)phenyl)piperidin-1-yl)methanone] | 84 | 40 | 30 | – | 2520 | < 100 |
| – | – | 47 | ≤ 1 | Cc1cc2nc(N)c3cncn3c2cc1C(=O)N1CCC[C@@H]2Oc3cc(C(F)(F)F)ccc3[C@@H]21 [Ff-368, (4-amino-7-methylimidazo[1,5-a]quinoxalin-8-yl)((4aS,9bS)-7-(trifluoromethyl)-3,4,4a,9b-tetrahydrobenzofuro[3,2-b]pyridin-1(2H)-yl)methanone] | 59 | – | 3 | – | 178 | < 100 |
